In patent US6645970B2, “Indolylmaleimide derivatives” (Novartis AG, priority 2000, dated 2003):

Experiments:
[1] = target: Human recombinant PKCθ (Homo sapiens, UniProt Q04759); test: Protein Kinase C θ Assay; format: biochemical; conditions: 10 μM ATP
Source text: Human recombinant PKCθ is used under the assay conditions as described above.

[2] = system: Jurkat cells transfected with a human interleukin-2 promoter/reporter gene construct; test: CD28 costimulation assay; format: cell-based; conditions: stimulated Jurkat cells, IL-2 promoter luciferase reporter, 5.5 hours
[3] = system: spleen cells from CBA and BALB/c mice; test: Allogeneic Mixed Lymphocyte Reaction (MLR); format: cell-based; conditions: Mus musculus, two-way MLR, 3H-thymidine incorporation
Procedure: The two-way MLR is performed according to standard procedures (J. Immunol. Methods, 1973, 2, 279 and Meo T. et al., Immunological Methods, New York, Academic Press, 1979, 227-39). Briefly, spleen cells from CBA and BALB/c mice (1.6×10^5 cells from each strain per well in flat bottom tissue culture microtiter plates, 3.2×10^5 in total) are incubated in RPMI medium containing 10% FCS, 100 U/ml penicillin, 100 μg/mI streptomycin (Gibco BRL, Basel, Switzerland), 50 μM 2-mercaptoethanol (Fluka, Buchs, Switzerland) and serially diluted compounds. Seven three-fold dilution steps in duplicates per test compound are performed. After four days of incubation 1 μCi ^3H-thymidine is added. Cells are harvested after an additional five-hour incubation period, and incorporated ^3H-thymidine is determined according to standard procedures. Background values (low control) of the MLR are the proliferation of BALB/c cells alone. Low controls are subtracted from all values. High controls without any sample are taken as 100% proliferation. Percent inhibition by the samples is calculated, and the concentrations required for 50% inhibition (IC50 values) are determined.

[4] = target: T1, Human recombinant PKCη (Homo sapiens, UniProt P24723); test: Protein Kinase Cη Assay; format: biochemical; conditions: 10 μM ATP
T1 construct: purchased PanVera
Procedure: (§1) The compounds of formula I are tested for their activity on different PKC isoforms according to a published method (D. Geiges et al. Biochem. Pharmacol. 1997;53:865-875) The assay is performed in a 96-well polypropylene microtiterplate (Costar 3794) that has been previously siliconized with Sigmacote (Sigma SL-2). The reaction mixture (50 μl) contains 10 μl the relevant PKC isozyme together with 25 μl of the test compound and 15 μl of a mix solution that contains 200 μg/ml protamine sulfate, 10 mM Mg(NO3)2, 10 μM ATP (Boehringer 519987) and 3750 Bq of ^33P-ATP (Hartmann Analytic SFC301, 110TBq/mmol) in 20 mM Tris-buffer pH 7.4+0.1% BSA. Incubation is performed for 15 min at 32° C. in a microtiterplate shaking incubator (Biolabo Scientific Instruments). Reaction is stopped by adding 10 μl of 0.5 M Na2EDTA, pH 7.4. 50 μl of mixture are pipetted onto a pre-wetted phosphocellulose paper (Whatmann 3698-915) under gentle pressure. Non-incorporated ATP is washed away with 100 μl bi-dist H2O. The paper is washed twice in 0.5% H3PO4 for 15 min followed by 5 min in EtOH. Thereafter the paper is dryed and placed in an omnifilter (Packard 6005219), and overlayed with 10 μl/well of Microscint-O (Packard 6013611) before counting in a Topcount radioactivity counter (Packard). […] IC50 value are calculated from the graph by sigmoidal curve fitting. […]

[5] = target: T2, Human recombinant PKCα (Homo sapiens, UniProt P17252); test: Protein Kinase Cα Assay; format: biochemical; conditions: 10 μM ATP
T2 construct: purchased Oxford Biomedical Research
Procedure: The compounds of formula I are tested for their activity on different PKC isoforms according to a published method (D. Geiges et al. Biochem. Pharmacol. 1997;53:865-875) The assay is performed in a 96-well polypropylene microtiterplate (Costar 3794) that has been previously siliconized with Sigmacote (Sigma SL-2). The reaction mixture (50 μl) contains 10 μl the relevant PKC isozyme together with 25 μl of the test compound and 15 μl of a mix solution that contains 200 μg/ml protamine sulfate, 10 mM Mg(NO3)2, 10 μM ATP (Boehringer 519987) and 3750 Bq of ^33P-ATP (Hartmann Analytic SFC301, 110TBq/mmol) in 20 mM Tris-buffer pH 7.4+0.1% BSA. Incubation is performed for 15 min at 32° C. in a microtiterplate shaking incubator (Biolabo Scientific Instruments). Reaction is stopped by adding 10 μl of 0.5 M Na2EDTA, pH 7.4. 50 μl of mixture are pipetted onto a pre-wetted phosphocellulose paper (Whatmann 3698-915) under gentle pressure. Non-incorporated ATP is washed away with 100 μl bi-dist H2O. The paper is washed twice in 0.5% H3PO4 for 15 min followed by 5 min in EtOH. Thereafter the paper is dryed and placed in an omnifilter (Packard 6005219), and overlayed with 10 μl/well of Microscint-O (Packard 6013611) before counting in a Topcount radioactivity counter (Packard). […] IC50 value are calculated from the graph by sigmoidal curve fitting.

[6] = system: Rat Heart transplantation (graft survival); test: Rat Heart transplantation; format: in vivo; conditions: Lewis and BN strains, 30 mg/kg/day
Procedure: The strain combination used: Male Lewis (RT^1 haplotype) and BN (RT^1 haplotype). The animals are anaesthetised using inhalational isofluorane. […] The aorta is ligated and divided distal to the first branch and the brachiocephalic trunk is divided at the first bifurcation. The left pulmonary artery is ligated and divided and the right side divided but left open. All other vessels are dissected free, ligated and divided and the donor heart is removed into iced saline.
The recipient is prepared by dissection and cross-clamping of the infra-renal abdominal aorta and vena cava. The graft is implanted with end-to-side anastomoses, using 10/0 monofilament suture, between the donor brachiocephalic trunk and the recipient aorta and the donor right pulmonary artery to the recipient vena cava. The clamps are removed, the graft tethered retroabdominally, the abdominal contents washed with warm saline and the animal is closed and allowed to recover under a heating lamp. Graft survival is monitored by daily palpation of the beating donor heart through the abdominal wall. Rejection is considered to be complete when heart beat stops. Increases of graft survival are obtained in animals treated with a compound of formula I administered orally at a daily dose of 1 to 30 mg/kg.

[7] = target: T3, Human recombinant PKCε (Homo sapiens, UniProt Q02156); test: Protein Kinase Cε Assay; format: biochemical; conditions: 10 μM ATP
T3 construct: purchased Oxford Biomedical Research
T3 sequence (Q02156 1-737): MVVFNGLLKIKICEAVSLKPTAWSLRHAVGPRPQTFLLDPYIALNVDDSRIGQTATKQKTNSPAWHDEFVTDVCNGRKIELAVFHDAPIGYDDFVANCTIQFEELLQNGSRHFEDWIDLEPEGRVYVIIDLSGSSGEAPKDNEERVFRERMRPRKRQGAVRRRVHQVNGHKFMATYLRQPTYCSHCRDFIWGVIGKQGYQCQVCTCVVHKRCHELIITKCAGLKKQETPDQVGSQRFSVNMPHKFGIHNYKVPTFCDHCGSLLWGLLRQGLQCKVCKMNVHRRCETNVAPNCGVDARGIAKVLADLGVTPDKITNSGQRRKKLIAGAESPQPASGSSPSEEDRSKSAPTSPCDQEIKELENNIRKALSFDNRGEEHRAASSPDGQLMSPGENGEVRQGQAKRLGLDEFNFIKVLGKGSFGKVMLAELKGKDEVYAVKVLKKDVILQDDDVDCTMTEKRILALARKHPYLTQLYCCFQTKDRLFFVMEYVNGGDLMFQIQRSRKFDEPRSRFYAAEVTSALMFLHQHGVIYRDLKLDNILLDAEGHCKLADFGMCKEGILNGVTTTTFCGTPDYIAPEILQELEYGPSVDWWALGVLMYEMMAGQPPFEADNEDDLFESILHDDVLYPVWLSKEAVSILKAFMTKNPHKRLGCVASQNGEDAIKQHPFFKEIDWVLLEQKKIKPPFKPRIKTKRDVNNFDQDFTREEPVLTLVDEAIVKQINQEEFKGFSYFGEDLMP
Procedure: as §1

[8] = target: T4, Human recombinant PKCβ1 (Homo sapiens, UniProt P05771); test: Protein Kinase Cβ1 Assay; format: biochemical; conditions: human recombinant PKCβ1, 10 μM ATP
T4 construct: purchased Oxford Biomedical Research
Procedure: as §1

[9] = target: T5, Human recombinant PKCδ (Homo sapiens, UniProt Q05655); test: Protein Kinase Cδ Assay; format: biochemical; conditions: 10 μM ATP
T5 construct: purchased Oxford Biomedical Research
Procedure: as §1

T4 sequence (P05771 whole entry): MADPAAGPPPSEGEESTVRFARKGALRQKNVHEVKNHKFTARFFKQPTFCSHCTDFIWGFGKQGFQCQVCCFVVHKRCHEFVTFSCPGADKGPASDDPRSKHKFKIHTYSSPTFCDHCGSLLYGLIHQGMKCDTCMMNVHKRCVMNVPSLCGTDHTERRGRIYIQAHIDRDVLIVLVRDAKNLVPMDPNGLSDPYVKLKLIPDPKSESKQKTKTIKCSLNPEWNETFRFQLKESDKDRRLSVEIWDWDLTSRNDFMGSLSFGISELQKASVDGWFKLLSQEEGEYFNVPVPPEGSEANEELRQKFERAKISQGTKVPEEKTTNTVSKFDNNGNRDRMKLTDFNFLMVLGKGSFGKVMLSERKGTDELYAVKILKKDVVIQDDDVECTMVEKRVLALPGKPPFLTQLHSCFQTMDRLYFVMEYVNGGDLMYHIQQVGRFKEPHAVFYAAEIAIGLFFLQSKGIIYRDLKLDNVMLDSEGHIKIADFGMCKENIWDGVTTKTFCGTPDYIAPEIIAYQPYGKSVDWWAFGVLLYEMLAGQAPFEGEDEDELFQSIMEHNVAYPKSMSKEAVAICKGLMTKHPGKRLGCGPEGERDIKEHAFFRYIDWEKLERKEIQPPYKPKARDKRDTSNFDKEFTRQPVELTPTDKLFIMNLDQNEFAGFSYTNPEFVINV
T1 sequence (P24723 whole entry): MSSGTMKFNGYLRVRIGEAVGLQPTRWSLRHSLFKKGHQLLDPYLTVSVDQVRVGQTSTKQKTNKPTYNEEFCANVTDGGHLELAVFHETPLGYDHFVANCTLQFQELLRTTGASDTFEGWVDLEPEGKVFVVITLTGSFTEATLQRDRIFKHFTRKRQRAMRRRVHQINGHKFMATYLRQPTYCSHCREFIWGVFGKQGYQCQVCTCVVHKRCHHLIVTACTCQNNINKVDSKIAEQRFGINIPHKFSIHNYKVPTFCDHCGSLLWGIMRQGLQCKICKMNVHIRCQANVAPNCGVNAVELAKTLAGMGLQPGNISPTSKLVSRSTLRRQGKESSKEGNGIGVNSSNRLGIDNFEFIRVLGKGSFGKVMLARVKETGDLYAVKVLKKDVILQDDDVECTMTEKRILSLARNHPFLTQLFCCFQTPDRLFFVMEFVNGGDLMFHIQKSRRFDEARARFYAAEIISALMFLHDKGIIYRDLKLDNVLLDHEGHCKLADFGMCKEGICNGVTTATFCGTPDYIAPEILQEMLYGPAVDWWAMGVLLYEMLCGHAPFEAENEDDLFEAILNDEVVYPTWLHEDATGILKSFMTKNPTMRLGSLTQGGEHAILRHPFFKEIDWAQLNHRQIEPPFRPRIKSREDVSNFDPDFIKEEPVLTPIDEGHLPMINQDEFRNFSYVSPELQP
T5 sequence (Q05655 whole entry): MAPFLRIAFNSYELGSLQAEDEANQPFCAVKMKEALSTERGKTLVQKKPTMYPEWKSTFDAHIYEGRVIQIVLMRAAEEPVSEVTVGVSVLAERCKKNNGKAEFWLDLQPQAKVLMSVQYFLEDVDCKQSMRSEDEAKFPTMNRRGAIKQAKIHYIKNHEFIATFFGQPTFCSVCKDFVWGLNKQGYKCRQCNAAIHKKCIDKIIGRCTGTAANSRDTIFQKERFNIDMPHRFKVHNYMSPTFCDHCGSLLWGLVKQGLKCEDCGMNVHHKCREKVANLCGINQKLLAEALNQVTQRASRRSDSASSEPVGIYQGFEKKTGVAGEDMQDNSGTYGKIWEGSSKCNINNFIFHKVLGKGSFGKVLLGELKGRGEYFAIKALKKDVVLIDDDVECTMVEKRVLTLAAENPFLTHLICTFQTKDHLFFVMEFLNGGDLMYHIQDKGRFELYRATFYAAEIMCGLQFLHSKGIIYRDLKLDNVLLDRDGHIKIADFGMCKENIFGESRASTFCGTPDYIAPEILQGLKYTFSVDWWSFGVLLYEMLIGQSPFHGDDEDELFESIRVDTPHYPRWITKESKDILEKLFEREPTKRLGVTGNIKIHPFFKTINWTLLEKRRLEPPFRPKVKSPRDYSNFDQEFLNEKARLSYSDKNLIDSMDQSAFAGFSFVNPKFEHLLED
Sequence of Human recombinant PKCθ (Q04759 whole entry): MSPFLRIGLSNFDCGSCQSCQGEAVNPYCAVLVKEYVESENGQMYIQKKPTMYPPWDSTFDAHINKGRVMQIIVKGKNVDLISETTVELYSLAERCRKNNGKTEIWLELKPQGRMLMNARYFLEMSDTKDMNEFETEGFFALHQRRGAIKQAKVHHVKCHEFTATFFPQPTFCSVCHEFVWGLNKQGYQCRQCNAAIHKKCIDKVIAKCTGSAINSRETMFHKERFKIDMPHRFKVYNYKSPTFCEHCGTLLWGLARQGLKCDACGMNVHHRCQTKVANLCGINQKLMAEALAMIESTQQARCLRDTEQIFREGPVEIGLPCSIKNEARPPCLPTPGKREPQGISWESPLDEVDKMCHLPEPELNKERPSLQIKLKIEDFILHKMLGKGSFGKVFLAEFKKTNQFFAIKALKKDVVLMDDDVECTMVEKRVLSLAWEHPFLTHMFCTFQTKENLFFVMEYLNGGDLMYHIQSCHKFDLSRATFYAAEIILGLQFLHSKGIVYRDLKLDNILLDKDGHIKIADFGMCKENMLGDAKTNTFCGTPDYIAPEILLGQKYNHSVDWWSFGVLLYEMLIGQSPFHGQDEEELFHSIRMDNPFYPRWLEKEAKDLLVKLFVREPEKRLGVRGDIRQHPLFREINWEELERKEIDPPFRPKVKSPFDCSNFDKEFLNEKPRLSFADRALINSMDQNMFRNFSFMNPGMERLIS

CN1CCN(c2nc(C3=C(c4c[nH]c5ccccc45)C(=O)NC3=O)c3ccccc3n2)CC1 [Example 56, 3-(1.H.-indol-3-yl)-4-[2-(4-methyl-piperazin-1-yl)-quinazolin-4-yl]-pyrrole-2,5-dione] was tested, and the IC50 [1] was < 10 nM, the IC50 [2] was 42 ± 12 nM and the IC50 [3] was 168 ± 20 nM.

For CC(C)N1CCN(c2nc(C3=C(c4c[nH]c5ccccc45)C(=O)NC3=O)c3ccccc3n2)CC1 [Example 85], the IC50 [4] was 50 ± 9 nM.

Cn1cc(C2=C(c3nc(N4CCNC5(CC5)C4)nc4ccccc34)C(=O)NC2=O)c2ccccc21 [Example 100] was tested, and the IC50 [5] was 39 ± 15 nM and the graft survival [6] was “significantly increases the graft survival”.

Cc1cccc2c(C3=C(c4nc(N5CCN(C)CC5)nc5ccccc45)C(=O)NC3=O)c[nH]c12 [Example 139] showed an IC50 [7] of 20 ± 7 nM.

CN1CCN(c2cc(C3=C(c4c[nH]c5ccccc45)C(=O)NC3=O)c3ccccc3n2)CC1 [Example 163, 3-(1.H.-indol-3-yl)-4-[2-(4-methyl-piperazin-1-yl)-quinolin-4-yl]-pyrrole-2,5-dione] showed an IC50 [8] of 8 ± 2 nM.

For CN1CCN(c2cc3ccccc3c(C3=C(c4c[nH]c5ccccc45)C(=O)NC3=O)n2)CC1 [Example 181, 3-(1.H.-Indol-3-yl)-4-[3-(4-methyl-piperazin-1-yl)-isoquinolin-1-yl]-pyrrole-2,5-dione], the IC50 [9] was 18 ± 8 nM.
